Here are results for one compound from PMC12522199 (RSC Advances, 2025).

The target of the assay is HamA (Burkholderia cenocepacia, UniProt A0A144VC93). Nature of the assay: microscale thermophoresis. Format: binding. (In general: MST reads how a fluorescent partner responds to local heating, with and without ligand.)

A word on the Kd: it is the concentration at which binding is half-saturated. Read a low Kd as higher affinity. The compound `O=C(O)CCC(=O)C(=O)O` [2-oxoglutarate] returned a Kd of 208 ± 1.42 µM.
